Series [1] deals with hEPO mRNA expression. The series can be described thus: Expression of hEPO in rats after intravenous administration. The format is in vivo. The following applies: hEPO expression in S.D. rats; for AUC/MC3 0.1 mpk / AUC/MC3 1 mpk: relative to MC3. The procedure: PBS (phosphate buffered saline) is used as control.
Formulations were prepared according to Table 5 and included mRNA encoding hEPO.
[…] After the 48 hour time point, livers and spleens were harvested and frozen.

The nature of series [2]: Lipid clearance: % dose remaining in mouse liver 6 h and 24 h after administration of nanoparticle compositions. The format is in vivo, CD-1 mice. The text has this: In contrast, hEPO expression in rats induced by administration of a nanoparticle composition including a compound according to one of formulae (I), (Ia1)-(Ia6), (Ib), (II), (IIa), (III), and (IIIa) was substantially […] than that measured for MC3. […] Table 7c and 7d show additional protein expressions and clearance data from compositions with various compounds disclosed herein as compared to with MC3.

A short description of series [3]: Lipid levels in liver and spleen 48 hours after administration. The following applies: rat liver, 48 h. The format is in vivo, rats. The procedure:
Formulations were administered intravenously to rats (n=3 or 6) at a dosage of 0.2 mg/kg or 0.5 mg/kg (mpk) and hEPO levels measured at 3, 6, and 24 hour time points. After the 48 hour time point, livers and spleens were harvested and frozen.
The amount of lipid in the liver and spleen 48 hours after administration of a nanoparticle composition was also measured. […] In contrast, approximately 60% of doses including MC3 or Compound 22 remained in the liver after 48 hours. Less than 3% of the dose remained in the spleen for each composition tested.

Series [4] deals with luciferase (Luc) mRNA expression. Nature of the series: Expression of Luc induced by sample formulations, whole-body bioluminescence after intravenous administration. The format is in vivo. The following applies: Table 2; mice, i.v., 0.5 mg/kg, 6 hours. A digest of the protocol:
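Mice (n=6) dosed intravenously with Luc mRNA nanoparticle formulations at 0.5 mg/kg. Whole-body bioluminescence measured at 3, 6 and 24 h. Standard MC3 formulation and PBS control run alongside.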

Series [5] is described as follows: pKa of nanoparticle compositions. The format is physicochemical. The following applies: Table 1; rows without footnote mark.
Series [6] deals with modified luciferase expression. The series can be described thus: Expression of Luc in different organs (liver, lung, spleen, femur) 6 hours after intravenous administration. The format is in vivo. The following applies: Table 3, mice, i.v., 0.5 mpk. On the procedure:
The efficacy of the nanoparticle compositions presented in Tables 1, 1a, 17-1, 19-1, 20-1 and 21-1 was further evaluated by measuring the expression of modified luciferase in the liver, lung, spleen, and femur upon administration of a given composition. Formulations were administered intravenously to mice (n=3) at a dosage of 0.5 mpk and bioluminescence measured after 6 hours. The standard MC3 formulation and a PBS control were also tested.

A short description of series [7]: Encapsulation efficiency of RNA (QUANT-IT RIBOGREEN RNA assay). The format is physicochemical. A digest of the protocol: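 Nanoparticle samples diluted to ~5 μg/mL RNA in TE buffer (pH 7.5), incubated with or without 2% Triton X-100 solution at 37 °C for 15 min, then RiboGreen added. Fluorescence read at ~480/520 nm, blank-subtracted; free RNA % = intact over Triton-disrupted signal.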

The nature of series [8]: Particle size and polydispersity index of nanoparticle compositions (Zetasizer Nano ZS). The format is physicochemical. An outline of the steps: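 Particle size and PDI were measured on a Zetasizer Nano ZS with the nanoparticle compositions dispersed in 1×PBS.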
Series [9] concerns hEPO mRNA expression. Nature of the series: Expression of hEPO in CD-1 mice. The format is in vivo. The following applies: Table 7e; hEPO expression, CD-1 mice, 0.5 mpk. From the text: FIG. 12 is a set of graphs illustrating hEPO expression levels in CD-1 mice dosed with compounds of the disclosure, compared to MC3. PBS is used as control. […] In graphs A-C numbers 1-14 refer to compositions containing the following: 1: Compound 73, 2: Compound 80, 3: Compound 70; 4: Compound 81; 5: Compound 69; 6: Compound 82; 7: Compound 83; 8: Compound 62; 9: Compound 84; 10: Compound 85; 11: Compound 86; 12: Compound 87; 13: MC3; 14: PBS.
FIG. 13 is a graph showing hEPO levels (pg/mL) in CD-1 mice up to ˜25 h after administration of a nanoparticle composition containing compounds of the disclosure, compared to a composition containing MC3. Numbers 1-13 refer to compositions containing the following: 1: Compound 73, 2: Compound 80, 3: Compound 70; 4: Compound 81; 5: Compound 69; 6: Compound 82; 7: Compound 83; 8: Compound 62; 9: Compound 84; 10: Compound 85; 11: Compound 86; 12: Compound 87; 13: MC3. […]

[10] abbreviates: Table 1, rows without footnote mark.
Where [11] appears, read: Table 1, rows without footnote mark (lipid:DOPE:cholesterol:PEG-DMG 40:20:38.5:1.5, Luc mRNA; MC3 standard formulation).

In the case of `CCCCCCCCCN(CCCCCCCCC)CCN(CCCCCCCCC)CC(=O)N1CCN(C(=O)CN(CCCCCCCCC)CCCC(=O)OCCCCC)CC1` [Compound 45, Pentyl 4-((2-(4-(N-(2-(dinonylamino)ethyl)-N-nonylglycyl)piperazin-1-yl)-2-oxoethyl)(nonyl)amino)butanoate], in the series on hEPO mRNA expression [1], the “AUC (0.1 mpk)” value stood at 1.45E+06, the “AUC/MC3 0.1 mpk” value was determined as 0.90, the “AUC (1 mpk)” value is 2.00E+08 and the “AUC/MC3 1 mpk” value is 1.7. In [2], the “% Dose remaining 6 h CD-1 mice” value was found to be 33%, the “% Dose remaining 24 h CD-1 mice” value came to 24% and the “% dose remaining Mouse liver (24 h)” value came to 23.7%. In addition, the “% dose remainng Rat liver (48 h)” value in series [3] is on record as 8.57%. In series [4], the “Total Flux 6 hours” value was determined as 7.86E+10. In series [5], this molecule came in with a pKa of 6.77. Moreover, in series [6], the “Total Flux Liver” value came out at 7.87E+09 and the “Total Flux Spleen” value turned out to be 1.70E+08. For the same molecule, the “EE (%)” value in series [7] (setting [10]) was 94.9%. This molecule gave a PDI in series [8] (setting [10]) of 0.200. The “Size (nm)” value in series [8] (setting [11]) came out at 100.2 nm.
For the molecule `CCCCCCCCCN(CCCCCCCCC)CCC1CCN(C(=O)CN(CCCCCCCCC)CCN(CCCCCCCCC)CCCCCCCCC)CC1` [Compound 49, 2-((2-(Dinonylamino)ethyl)(nonyl)amino)-1-(4-(2-(dinonylamino)ethyl)piperidin-1-yl)ethan-1-one], in the series on hEPO mRNA expression [1], the “AUC (0.1 mpk)” value stood at 5.98E+06, the “AUC/MC3 0.1 mpk” value amounted to 3.7, the “AUC (1 mpk)” value came to 1.44E+08 and the “AUC/MC3 1 mpk” value stood at 1.2. For the same molecule, in series [2], the “% Dose remaining 6 h CD-1 mice” value was 49%, the “% Dose remaining 24 h CD-1 mice” value worked out at 40% and the “% dose remaining Mouse liver (24 h)” value was found to be 40.3%. Also, in series [3], the “% dose remainng Rat liver (48 h)” value is on record as 38.45%. For the same molecule, the “Total Flux 6 hours” value in series [4] stood at 5.67E+10. In series [5], this molecule registered a pKa of 6.4. Further, in series [6], the “Total Flux Liver” value is recorded as 1.21E+10 and the “Total Flux Spleen” value is 6.65E+07. The “EE (%)” value in series [7] (setting [10]) stood at 98.8%. Also, in [8] (setting [10]), the PDI was 0.200. Besides, the “Size (nm)” value in [8] (setting [11]) was 95.8 nm.
For `CCCCCCCCCN(CCCCCCCCC)CCN(CCCCCCCCC)CCC1CCN(C(=O)CN(CCCCCCCCC)CCCCCCCCC)CC1` [Compound 50, 2-(Dinonylamino)-1-(4-(2-((2-(dinonylamino)ethyl)(nonyl)amino)ethyl)piperidin-1-yl)ethan-1-one], in series [2], the “% Dose remaining 6 h CD-1 mice” value was 56% and the “% Dose remaining 24 h CD-1 mice” value amounted to 47%. The “Total Flux 6 hours” value in series [4] turned out to be 1.48E+08. Further, the pKa in series [5] is reported as 5.55. Also, in [6], the “Total Flux Liver” value came out at 2.14E+07 and the “Total Flux Spleen” value is reported as 1.94E+05. The “EE (%)” value in [7] (setting [10]) is 98.7%. In [8] (setting [10]), this molecule displayed a PDI of 0.190. Also, in series [8] (setting [11]), the “Size (nm)” value stood at 65.6 nm. In addition, in series [8] (comparison amongst compositions), the “particle size, rank within the named table (in words)” value is listed as “smallest particles”.
In the case of `CCCCCCCCCCCCCCN(CCCCCCCCCCCCCC)CC(=O)N1CCN(C(=O)CN(CCCCCCCCC)CCN(CCCCCCCCC)CCCCCCCCC)CC1` [Compound 51, 2-((2-(Dinonylamino)ethyl)(nonyl)amino)-1-(4-(ditetradecylglycyl)piperazin-1-yl)ethan-1-one], in series [2], the “% Dose remaining 6 h CD-1 mice” value turned out to be 54% and the “% Dose remaining 24 h CD-1 mice” value stood at 41%. Also, in [4], the “Total Flux 6 hours” value turned out to be 6.70E+10. In series [5], this molecule yielded a pKa of 6.44. Moreover, in series [6], the “Total Flux Liver” value came out at 3.55E+09 and the “Total Flux Spleen” value was determined as 2.24E+07. For the same molecule, the “EE (%)” value in series [7] (setting [10]) is 98.4%. In [8] (setting [10]), the PDI came to 0.190. Further, the “Size (nm)” value in [8] (setting [11]) is recorded as 76.6 nm.
Consider `CCCCCCCCCN(CCCCCCCCC)CCC(=O)N1CCN(C(=O)CCN(CCCCCCCCC)CCN(CCCCCCCCC)CCCCCCCCC)CC1` [Compound 52, 3-(Dinonylamino)-1-(4-(3-((2-(dinonylamino)ethyl)(nonyl)amino)propanoyl)piperazin-1-yl)propan-1-one], for which, in series [2], the “% Dose remaining 6 h CD-1 mice” value is recorded as 46% and the “% Dose remaining 24 h CD-1 mice” value turned out to be 40%. The “Total Flux 6 hours” value in [4] is 9.85E+10. The same molecule showed a pKa in [5] of 6.77. Besides, in series [6], the “Total Flux Liver” value is on record as 1.18E+10 and the “Total Flux Spleen” value is given as 8.74E+08. Moreover, the “EE (%)” value in [7] (setting [10]) amounted to 97.5%. This molecule also returned a PDI in series [8] (setting [10]) of 0.100. Also, the “Size (nm)” value in series [8] (setting [11]) turned out to be 94.4 nm.
For the molecule `CCCCCCCCCN(CCCC(=O)OCCCCC)CCC(=O)N1CCN(C(=O)CCN(CCCCCCCCC)CCN(CCCCCCCCC)CCCCCCCCC)CC1` [Compound 62, Pentyl 4-((3-(4-(3-((2-(dinonylamino)ethyl)(nonyl)amino)propanoyl)piperazin-1-yl)-3-oxopropyl)(nonyl)amino)butanoate], the “AUC (p/s*h) CD-1 mice 0.5 mpk” value in the series on hEPO mRNA expression [9] is 3.46E+7 p/s*h. Further, in series [7] (Table 1b), the “EE (%)” value is on record as 97.73%. Further, in series [8] (Table 1b), the PDI worked out at 0.18 and the “Size (nm)” value is 61.7 nm.
Taken in the same sequence, the figures for `CCCCCCCCCN(CCCCCCCCC)CCC1CCN(C(=O)CN(CCCCCCCCC)CCN(CCCCCCCCC)CCCCCCCCC)C1` (stereo not shown) [Compound 69, 2-((2-(Dinonylamino)ethyl)(nonyl)amino)-1-(3-(2-(dinonylamino)ethyl)pyrrolidin-1-yl)ethan-1-one] were 2.33E+8 p/s*h, 99.31%, 0.24 and 74.4 nm.
Taken in the same sequence, the figures for `CCCCCCCCCN(CCCCCCCCC)CCN(CCCCCCCCC)CC(=O)N1CCC(CN(CCCCCCCCC)CCCCCCCCC)C1` (stereo not shown) [Compound 70, 2-((2-(Dinonylamino)ethyl)(nonyl)amino)-1-(3-((dinonylamino)methyl)pyrrolidin-1-yl)ethan-1-one] were 6.34E+7 p/s*h, 99.14%, 0.24 and 79.8 nm.
Taken in the same sequence, the figures for `CCCCCCCCCN(CCCCCCCCC)CCC1CCCN(C(=O)CN(CCCCCCCCC)CCN(CCCCCCCCC)CCCCCCCCC)C1` (stereo not shown) [Compound 73, 2-((2-(Dinonylamino)ethyl)(nonyl)amino)-1-(3-(2-(dinonylamino)ethyl)piperidin-1-yl)ethan-1-one] were 1.41E+8 p/s*h, 98.85%, 0.25 and 84.3 nm.
Turning to `CCCCCCCCCN(CCCC(=O)OCCCCC)CCC1CCCN(C(=O)CN(CCCCCCCCC)CCN(CCCCCCCCC)CCCCCCCCC)C1` (stereo not shown) [Compound 80, Pentyl 4-((2-(1-(N-(2-(dinonylamino)ethyl)-N-nonylglycyl)piperidin-3-yl)ethyl)(nonyl)amino)butanoate], in the series with hEPO mRNA expression [9], the “AUC (p/s*h) CD-1 mice 0.5 mpk” value is on record as 6.24E+7 p/s*h. Also, the “EE (%)” value in series [7] (Table 1b) is listed as 98.93%. Also, in series [8] (Table 1b), the PDI is 0.2 and the “Size (nm)” value is listed as 65.8 nm.
Turning to `CCCCCCCCCN(CCCC(=O)OCCCCC)CCC1CCN(C(=O)CN(CCCCCCCCC)CCN(CCCCCCCCC)CCCCCCCCC)C1` (stereo not shown) [Compound 81, Pentyl 4-((2-(1-(N-(2-(dinonylamino)ethyl)-N-nonylglycyl)pyrrolidin-3-yl)ethyl)(nonyl)amino)butanoate], the “AUC (p/s*h) CD-1 mice 0.5 mpk” value in the series with hEPO mRNA expression [9] is 1.08E+8 p/s*h. The “EE (%)” value in [7] (Table 1b) came to 99.27%. Besides, in series [8] (Table 1b), the PDI is listed as 0.17 and the “Size (nm)” value is on record as 65.3 nm.

Broadly, the pKa is the negative logarithm of the acid dissociation constant. Higher therefore signals a weaker acid or stronger base.

The values are drawn from patent publication US10195156B2, “Compounds and compositions for intracellular delivery of agents” (ModernaTX, Inc., priority 2015, dated 2019).
